Measurements published in patent US6060473A, “7-azabicyclo[2.2.1]-heptane and -heptene derivatives as cholinergic receptor ligands” (priority 1996, dated 2000).
Read-outs that look alike come from different tables or passages of the source.

Key:
[1] = molecular target: T1, nicotinic cholinergic receptor (Rattus norvegicus, UniProt P09483+P12390); experiment: Competition with [3H](-)-cytisine for binding to rat cortex (brain) receptors (Tables 7, 8, 9)
T1 construct: A membrane fraction from rat brain cortex; tissue Harlan Laboratories; host or cells: rat brain cortex membranes
Excerpt: [^3 -H](-)-Cytisine is a nicotinic cholinergic receptor ligand that binds with high affinity to the a4b2 subtype receptor, the major subtype in rodent brain accounting for >90% of (-)-nicotine binding sites (Flores, et al., 1992; Whiting, et al., 1992). This nicotinic receptor subtype is most sensitive to (-)-nicotine compared to other receptor subtypes (Connolly, et al., (1992). Compounds that compete with cytisine for the nicotinic cholineric receptor are considered nicotine receptor agonists.
A membrane fraction from rat brain cortex (Harlan Laboratories) was prepared using an adaptation of an established method (Pabreza, et al., 1991). Compound and [^3 H]-(-)-cytisine (New England Nuclear, 42 Ci/mmol) were mixed before addition of membrane (0.5 mg protein) and incubated in glass tubes for 75 minutes on ice; total assay volume was 0.24 ml. Parallel assays to determine nonspecific binding were incubated in the presence of 10 uM (-)-nicotine (Sigma). Bound radioactivity was isolated by vacuum filtration onto glass microfiber filters (Whatman, GF-B) using millipore tubs, followed by 3×4 ml buffer wash. Filters were prerinsed with 0.5% polyethyleneimine prior to sample filtration to reduce nonspecific binding. Bound radioactivity was quantitated by scintillation counting.

[2] = Straub-Tail assay (Table 5); format: in vivo
Excerpt: A wide variety of biological assays have been used to evaluate the ability of a compound to act as an analgesic. Any of these known assays can be used to evaluate the analgesic ability of the compounds disclosed herein. The Straub-tail reaction, which is characteristic of opiate alkaloids, has been used as an assay for opiate agonists and antagonists. The assay is described in detail in Br. J. of Pharmacol. 1969, 36, 225. Another accepted assay for analgesic activity is the hot plate analgesia assay, described in J. of Pharmacol. Exp. Therap. 1953, 107, 385. An assay for the evaluation of the ability of a compound to bind to an opiate receptor is described in Mol. Pharmacol. 1974, 10, 868.
Table 5 provides the analgesic activity measured as ED50 (μg/Kg) for selected compounds disclosed herein, as determined using the Straub-Tail assay, as describe by J. Daily et al. J. Am. […] Chem. Soc. 1992, 114, 3475; T. Li, et al. Bioorganic and Medicinal Chemistry Letters 1993, 3, 2759.

[3] = opiate antagonist naloxone; cited from earlier work
[4] = tested on: nicotinic cholinergic receptor; settings: in words; cited from earlier work
[5] = molecular target: T2, acetylcholine nicotinic receptor (Rattus norvegicus, UniProt P09483+P12390); experiment: Nicotinic receptor binding, [3H]-NMCI radioligand, rat cortex (Table 6)
T2 construct: rat cortex as the tissue substrate; from tissue; host or cells: rat cortex
Description: 7-Aza-bicyclo[2.2.1]-heptanes and -heptenes were evaluated for their ability to bind to the acetylcholine nicotinic receptor using a standard binding assay, e.g. X. Zhang and A. Nordberg, Arch. Pharmacol., 348, 28 (1993); R. E. Middleton and J. B. Cohen, Biochemistry, 30, 6987 (1991), with nicotine sulfate as the reference compound, rat cortex as the tissue substrate, and a [^3 H]-NMCI radioligand.

[6] = Tail-flick assay, mouse (Table 9); format: in vivo; settings: sc, 5 min
Description: (§1) Female CD-1 mice (20-25 g, Charles River Labs) and male CD rats (300-400 g, Charles River Labs) were housed in groups of two and five, respectively. Animals were given food and water ad libitum. Most studies were performed using groups of 5 animals per treatment unless otherwise noted.
(§2) Antinociceptive effects (i.e., analgesia) of test compounds in mice and rats were measured by the tail-flick test using a tail-flick analgesia meter (EMDIE Instrument Co.). A maximum latency of 10 sec was imposed if no response occurred within that time. Antinociceptive activity, measured as % MPE, was calculated as [(test-control)/(10-control)×100)].
(§3) Duration of compound and (-)-nicotine-induced antinociception was assessed in mice by measuring antinociception at 2, 5, 10, 20 min after compound (20 μg/kg, s.c.) or nicotine (5 mg/kg, s.c.).
(§4) Mice (7/group) or rats were pretreated i.v. (0.9% saline or antagonist, mecamylamine, hexamethonium, atropine, naloxone or yohimbine) 10 minutes before administration of compound or nicotine at different doses. A control response (1.5-4 sec) was determined for each animal before treatment and test latencies were assessed at 5 minutes after compound administration (5 ml/kg, s.c.) or 2 min after nicotine (5 ml/kg, s.c.).

[7] = Tail-flick assay, rat (Table 9); format: in vivo; settings: sc, 5 min
Description: as §1, §2, §4

[8] = Tail-flick assay (Tables 7 and 8, species not stated per value); format: in vivo, mice and rats; settings: for ED50: Mus musculus, sc, 5 min, read-out: Tail-Flick Assay ED50; for Tail-Flick Assay % Effect after 5 min: Table 7, 5 min; for Tail-Flick Assay % Effect after 5 min / Tail-Flick Assay % Effect after 60 min: head also prints ED50 (mg/kg); for Tail-Flick Assay % Effect after 60 min: Table 7, 60 min
Description: as §1, §2, §3
Mice (7/group) or rats were pretreated i.v. (0.9% saline or antagonist, mecamylamine, hexamethonium, atropine, naloxone or yohimbine) 10 minutes before administration of compound or nicotine at different doses. […]

a4b2 subtype receptor = settings: in words; cited from earlier work
[9] = Table 9, read-out: rat brain, 3H-cytisine binding IC50
[10] = Table 7, rat brain cortex membranes, read-out: Nicotine Receptor Cytisine IC50

Q: For `Cc1noc([C@@H]2C[C@H]3CC[C@@H]2N3C)n1` (single isomer, unassigned) [A], which IC50 [1, 9] is on record?
A: 1.4 µM

Q: Which ED50 [2] does the source give for `Clc1ccc(C2CC3CCC2N3)cn1` (stereo not shown) [1-epibatidine] here?
A: 0.009 mg/kg

Q: Which ED50 [2] does the source give for `Clc1ccc([C@@H]2C[C@H]3CC[C@@H]2N3)cn1` [d-epibatidine] here?
A: 0.0075 mg/kg

Q: For `N=CN1[C@@H]2CC[C@H]1[C@H](c1ccc(Cl)nc1)C2` (relative stereo), which “effect at 100” value ([2]; @ 100 (dose unit not given; column μg/Kg)) is on record?
A: 99%

Q: For `Clc1ccc([C@H]2C[C@H]3CC[C@@H]2N3)cn1` (relative stereo), which ED50 [2] is on record?
A: > 0.1 mg/kg

Q: For `Clc1ccc([C@@H]2C[C@H]3CC[C@@H]2N3)cn1` (single isomer, unassigned) [epibatidine, exo-2-(2-chloro-5-pyridyl)-7-azabicyclo [2.2.1]heptane], which “reversal of Straub-tail effect by naloxone” value [3] is on record?
A: not reversed by the opiate antagonist naloxone

Q: What about the “nicotinic cholinergic receptor agonism” value [4] of the same compound?
A: nicotinic cholinergic receptor agonist

Q: With `C[N+]1(C)[C@@H]2CC[C@H]1[C@H](c1ccc(Cl)nc1)C2` (relative stereo) as the compound, how does the ED50 ([2]; read-out: ED50) read?
A: 0.1 to 0.2 mg/kg

Q: With `C[N+]1(C)C2CCC1C(c1ccc(Cl)nc1)C2` (stereo not shown) as the compound, how does the Inhibition % ([5]; testing level 10^-9) read?
A: 49%

Q: Which Inhibition % ([5]; testing level 10^-9) does the source give for `c1cncc(C2CC3CCC2N3)c1` (stereo not shown) here?
A: 103%

Q: For `N=CN1C2CCC1C(c1ccc(Cl)nc1)C2` (stereo not shown), which Inhibition % ([5]; testing level 10^-9) is on record?
A: 49%

Q: What about the Inhibition % ([5]; testing level 10^-11) of the same compound?
A: 22%

Q: With `Clc1ccc([C@@H]2C[C@H]3CC[C@@H]2N3CC2CC2)cn1` (relative stereo) as the compound, how does the “effect at 1000 μg/Kg” value ([2]; @ 1000 (μg/Kg)) read?
A: 100%

Q: Which Inhibition % ([5]; testing level 10^-9) does the source give for `N=CN1C2CCC1C(c1cccnc1)C2` (stereo not shown) here?
A: 5%

Q: For `Cc1noc([C@@H]2C[C@H]3CC[C@@H]2N3C)n1` (relative stereo) [racemic A/B, (±)-exo-2-(3-methyl-1,2,4-oxadiazol-5-yl)-7-methyl-7-azabicyclo[2.2.1]heptane], which ED50 [6] is on record?
A: 0.2 mg/kg

Q: What about the ED50 [7] of the same compound?
A: 2.2 mg/kg

Q: And the IC50 [1, 9]?
A: 0.1 µM

Q: For `CN1C2CCC1C(c1ccc(Cl)nc1)C2` (stereo not shown), which Inhibition % ([5]; testing level 10^-9) is on record?
A: 22%

Q: And the Inhibition % ([5]; testing level 10^-11)?
A: 5%

Q: For `Cc1cc(C2CC3CCC2N3C)on1` (stereo not shown), which ED50 ([8]; Table 8) is on record?
A: ~1 mg/kg

Q: For `Cc1cc(C2CC3CCC2N3)on1` (stereo not shown), which ED50 [8] is on record?
A: > 2 mg/kg

Q: Which “affinity to a4b2 subtype receptor” value (a4b2 subtype receptor) does the source give for `O=c1cccc2n1C[C@@H]1CNC[C@H]2C1` [[^3 -H](-)-Cytisine] here?
A: high affinity

Q: With `Cc1nnc([C@@H]2C[C@H]3CC[C@@H]2N3C)o1` (relative stereo) as the compound, how does the IC50 [1, 10] read?
A: 0.15 µM

Q: What about the “Tail-Flick Assay % Effect after 5 min” value [8] of the same compound?
A: 6.7%

Q: What about the “Tail-Flick Assay % Effect after 60 min” value [8] of the same compound?
A: 24.6%

Q: For `Cc1nnc([C@H]2C[C@H]3CC[C@@H]2N3C)o1` (relative stereo), which IC50 [1, 10] is on record?
A: 32 µM

Q: And the “Tail-Flick Assay % Effect after 5 min” value [8]?
A: -2.9%

Q: And the “Tail-Flick Assay % Effect after 60 min” value [8]?
A: -3.6%

Q: For `Fc1ccc([C@H]2C[C@H]3CC[C@@H]2N3)cn1` (relative stereo), which ED50 ([2]; read-out: ED50) is on record?
A: ~0.01 mg/kg

Q: For `Cc1noc([C@@H]2C[C@H]3CC[C@@H]2N3C)n1` (single isomer, unassigned) [B], which IC50 [1, 9] is on record?
A: 0.018 µM

Q: For `c1ccc2nc(C3CC4CCC3N4)ccc2c1` (stereo not shown), which ED50 [8] is on record?
A: > 2 mg/kg
